Experimental data from paper PMC11111408, “Concurrent inhibition of oncogenic and wild-type RAS-GTP for cancer therapy” (Nature, 2024).
Several values for one entry are separate records, joined by “and”; a condition that tells them apart may be missing. Identical values can stand only once.

Tested on: NCI-H358 and MIA PaCa-2 cells expressing RTK constructs
Experiment: pERK (MSD) in NCI-H358 and MIA PaCa-2 cells expressing exogenous RTK or RTK fusion constructs
Format: cell-based, human

In the case of `CCn1c(-c2cc(N3CCN(C4CC4)CC3)cnc2[C@H](C)OC)c2c3cc(ccc31)-c1csc(n1)C[C@H](NC(=O)[C@H]1[C@@H]3COC[C@@H]31)C(=O)N1CCC[C@H](N1)C(=O)OCC(C)(C)C2` [RMC-7977], the “pERK in NCI-H358 RTK overexpression cells treated with RMC-7977” value (FGFR2, RMC-7977 33.33 nM) is reported as 3.56, the “pERK inhibition in H358 RTK overexpression cells” value (FGFR2, RMC-7977 33.33 nM) is reported as 3.76 and the “pERK in NCI-H358 RTK overexpression cells treated with RMC-7977” value (FGFR2, RMC-7977 100.00 nM) is reported as 2.34. For the same compound, the “pERK inhibition in H358 RTK overexpression cells” value (FGFR2, RMC-7977 100.00 nM) was 2.57, the “pERK in NCI-H358 RTK overexpression cells treated with RMC-7977” value (FGFR2, RMC-7977 300.00 nM) was 1.90 and the “pERK inhibition in H358 RTK overexpression cells” value (FGFR2, RMC-7977 300.00 nM) was 2.56. For the same compound, the “pERK inhibition in MiaPaCa2 RTK fusion overexpression cells treated with RMC-7977” value (“pERK inhibition … with RMC-7977” below) (FGFR3-TACC3, RMC-7977 0.412 nM) was 52.00 and 53.38 and 52.06 and 52.75, the “pERK inhibition … with RMC-7977” value (FGFR3-TACC3, RMC-7977 1.235 nM) was 23.92 and 29.24 and 28.51 and 28.89 and the “pERK inhibition … with RMC-7977” value (FGFR3-TACC3, RMC-7977 3.704 nM) was 15.09 and 13.49 and 14.38 and 14.06. For the same compound, the “pERK inhibition … with RMC-7977” value (FGFR3-TACC3, RMC-7977 11.111 nM) was 7.76 and 6.95 and 7.39 and 7.30, the “pERK inhibition … with RMC-7977” value (FGFR3-TACC3, RMC-7977 33.333 nM) was 4.29 and 4.25 and 4.22 and the “pERK inhibition … with RMC-7977” value (FGFR3-TACC3, RMC-7977 100.000 nM) was 3.04 and 3.39 and 3.61 and 3.12. The “pERK in NCI-H358 RTK overexpression cells treated with RMC-7977” value (GFP, RMC-7977 0.0152 nM) was 115.00 and 107.70, the “pERK inhibition in H358 RTK overexpression cells” value (GFP, RMC-7977 0.0152 nM) was 88.72 and 97.32 and the “pERK in NCI-H358 RTK overexpression cells treated with RMC-7977” value (GFP, RMC-7977 0.0457 nM) was 126.84 and 117.32. For the same compound, the “pERK inhibition in H358 RTK overexpression cells” value (GFP, RMC-7977 0.0457 nM) was 102.39 and 94.00, the “pERK in NCI-H358 RTK overexpression cells treated with RMC-7977” value (GFP, RMC-7977 0.41 nM) was 51.59 and 78.61 and the “pERK inhibition in H358 RTK overexpression cells” value (GFP, RMC-7977 0.41 nM) was 66.43 and 65.41. The “pERK inhibition … with RMC-7977” value (GFP, RMC-7977 0.412 nM) was 27.42 and 30.00 and 31.02 and 30.72, the “pERK inhibition … with RMC-7977” value (GFP, RMC-7977 1.235 nM) was 9.02 and 12.77 and 12.06 and 11.06 and the “pERK in NCI-H358 RTK overexpression cells treated with RMC-7977” value (GFP, RMC-7977 11.11 nM) was 4.80. For the same compound, the “pERK inhibition in H358 RTK overexpression cells” value (GFP, RMC-7977 11.11 nM) was 7.16 and 4.70, the “pERK inhibition … with RMC-7977” value (GFP, RMC-7977 11.111 nM) was 3.33 and 3.53 and 3.95 and 3.59 and the “pERK in NCI-H358 RTK overexpression cells treated with RMC-7977” value (GFP, RMC-7977 33.33 nM) was 2.56 and 2.82. For the same compound, the “pERK inhibition in H358 RTK overexpression cells” value (GFP, RMC-7977 33.33 nM) was 3.17 and 2.48, the “pERK inhibition … with RMC-7977” value (GFP, RMC-7977 33.333 nM) was 3.43 and 3.24 and 2.97 and 2.93 and the “pERK in NCI-H358 RTK overexpression cells treated with RMC-7977” value (GFP, RMC-7977 100.00 nM) was 2.07 and 1.93. For the same compound, the “pERK inhibition in H358 RTK overexpression cells” value (GFP, RMC-7977 100.00 nM) was 2.60 and 2.58, the “pERK inhibition … with RMC-7977” value (GFP, RMC-7977 100.000 nM) was 3.01 and 2.87 and 2.65 and 2.84 and the “pERK in NCI-H358 RTK overexpression cells treated with RMC-7977” value (GFP, RMC-7977 300.00 nM) was 2.17 and 2.42. For the same compound, the “pERK inhibition in H358 RTK overexpression cells” value (GFP, RMC-7977 300.00 nM) was 2.46 and 2.59, the “pERK in NCI-H358 RTK overexpression cells treated with RMC-7977” value (HER2, RMC-7977 0.0152 nM) was 111.00 and 102.34 and the “pERK inhibition in H358 RTK overexpression cells” value (HER2, RMC-7977 0.0152 nM) was 107.19 and 89.20. For the same compound, the “pERK in NCI-H358 RTK overexpression cells treated with RMC-7977” value (HER2, RMC-7977 0.0457 nM) was 106.57 and 84.47, the “pERK inhibition in H358 RTK overexpression cells” value (HER2, RMC-7977 0.0457 nM) was 86.86 and 85.86 and the “pERK in NCI-H358 RTK overexpression cells treated with RMC-7977” value (HER2, RMC-7977 0.41 nM) was 72.44 and 63.75. The “pERK inhibition in H358 RTK overexpression cells” value (HER2, RMC-7977 0.41 nM) was 63.34 and 59.01, the “pERK in NCI-H358 RTK overexpression cells treated with RMC-7977” value (HER2, RMC-7977 11.11 nM) was 2.66 and the “pERK inhibition in H358 RTK overexpression cells” value (HER2, RMC-7977 11.11 nM) was 6.01 and 6.18. The “pERK in NCI-H358 RTK overexpression cells treated with RMC-7977” value (HER2, RMC-7977 33.33 nM) was 1.70 and 1.64, the “pERK inhibition in H358 RTK overexpression cells” value (HER2, RMC-7977 33.33 nM) was 5.40 and 5.32 and the “pERK in NCI-H358 RTK overexpression cells treated with RMC-7977” value (HER2, RMC-7977 100.00 nM) was 1.42 and 1.69. The “pERK in NCI-H358 RTK overexpression cells treated with RMC-7977” value (HER2, RMC-7977 300.00 nM) was 2.02 and 1.78, the “pERK in NCI-H358 RTK overexpression cells treated with RMC-7977” value (RET M918T, RMC-7977 0.0152 nM) was 93.23 and 141.77 and the “pERK inhibition in H358 RTK overexpression cells” value (RET M918T, RMC-7977 0.0152 nM) was 96.21 and 105.26. For the same compound, the “pERK in NCI-H358 RTK overexpression cells treated with RMC-7977” value (RET M918T, RMC-7977 0.0457 nM) was 91.92 and 151.65, the “pERK inhibition in H358 RTK overexpression cells” value (RET M918T, RMC-7977 0.0457 nM) was 91.15 and 96.00 and the “pERK in NCI-H358 RTK overexpression cells treated with RMC-7977” value (RET M918T, RMC-7977 0.41 nM) was 60.67 and 71.79. For the same compound, the “pERK inhibition in H358 RTK overexpression cells” value (RET M918T, RMC-7977 0.41 nM) was 61.29 and 64.34, the “pERK inhibition in H358 RTK overexpression cells” value (RET M918T, RMC-7977 3.70 nM) was 20.58 and 17.35 and the “pERK in NCI-H358 RTK overexpression cells treated with RMC-7977” value (RET M918T, RMC-7977 11.11 nM) was 4.81 and 4.27. For the same compound, the “pERK inhibition in H358 RTK overexpression cells” value (RET M918T, RMC-7977 11.11 nM) was 7.08 and 6.42, the “pERK in NCI-H358 RTK overexpression cells treated with RMC-7977” value (RET M918T, RMC-7977 33.33 nM) was 2.17 and 2.02 and the “pERK inhibition in H358 RTK overexpression cells” value (RET M918T, RMC-7977 33.33 nM) was 3.13 and 3.07. For the same compound, the “pERK in NCI-H358 RTK overexpression cells treated with RMC-7977” value (RET M918T, RMC-7977 100.00 nM) was 1.44 and 1.22, the “pERK inhibition in H358 RTK overexpression cells” value (RET M918T, RMC-7977 100.00 nM) was 1.99 and 2.21 and the “pERK in NCI-H358 RTK overexpression cells treated with RMC-7977” value (RET M918T, RMC-7977 300.00 nM) was 1.32. The “pERK inhibition in H358 RTK overexpression cells” value (RET M918T, RMC-7977 300.00 nM) was 2.03 and 1.88.
